# From US20240002361A1, “COMPOSITIONS AND METHODS FOR BLOCKING NEUROPILIN RECEPTOR 1 FOR THE TREATMENT OF PAIN AND PREVENTION OF VIRAL ENTRY” (Arizona Board of Regents on Behalf of the University of …, priority 2020, published 2024)
# Columns and labels:
# [1] = test system: pY1175 VEGFR2; assay: In cell Western for detecting inhibition of VEGFR2 activation by VEGF-A165; type: cell-based, mouse; details: CAD cells, absence of stimulation by VEGF-A
# [2] = target: T1, NRP-1/VEGF-A interaction (Homo sapiens, UniProt O14786); assay: ELISA-based NRP1-VEGF-A165 protein binding assay (single concentration); details: compounds 12.5 μM (Spike S1 100 nM), biotinylated VEGF-A165 10 nM; ± standard error of the mean, n = 11
# T1 construct: coated with the extracellular domain of human NRP-1 (containing the a1a2 and the b1b2 regions); purchased Fisher, Hampton, NH 50-101-8343
# T1 sequence (O14786 22-856 limits assumed): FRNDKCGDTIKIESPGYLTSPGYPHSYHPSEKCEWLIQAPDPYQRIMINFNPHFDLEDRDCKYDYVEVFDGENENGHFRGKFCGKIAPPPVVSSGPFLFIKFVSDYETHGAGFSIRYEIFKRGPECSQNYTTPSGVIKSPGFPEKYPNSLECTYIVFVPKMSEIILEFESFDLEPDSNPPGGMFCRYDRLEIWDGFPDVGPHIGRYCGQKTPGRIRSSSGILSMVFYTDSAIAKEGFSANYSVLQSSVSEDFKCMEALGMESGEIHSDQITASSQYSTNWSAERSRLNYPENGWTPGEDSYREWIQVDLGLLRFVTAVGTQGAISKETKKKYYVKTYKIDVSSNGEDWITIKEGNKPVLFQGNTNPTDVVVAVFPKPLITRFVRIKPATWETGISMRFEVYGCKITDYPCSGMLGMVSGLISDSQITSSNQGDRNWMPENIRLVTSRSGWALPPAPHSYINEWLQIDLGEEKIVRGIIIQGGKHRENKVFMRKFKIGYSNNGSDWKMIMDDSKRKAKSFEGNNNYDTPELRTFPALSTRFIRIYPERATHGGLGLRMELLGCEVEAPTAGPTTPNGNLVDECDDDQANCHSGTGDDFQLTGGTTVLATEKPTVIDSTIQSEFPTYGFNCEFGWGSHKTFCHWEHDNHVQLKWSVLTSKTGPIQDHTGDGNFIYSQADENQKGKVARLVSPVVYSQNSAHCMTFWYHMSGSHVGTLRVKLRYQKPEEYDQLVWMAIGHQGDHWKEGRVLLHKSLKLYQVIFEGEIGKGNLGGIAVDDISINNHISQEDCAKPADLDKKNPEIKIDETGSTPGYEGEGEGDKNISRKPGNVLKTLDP
# [3] = test system: SNI rats; assay: Spared nerve injury (SNI)-induced mechanical allodynia, paw withdrawal threshold; type: in vivo, rats (Sprague Dawley, male); details: day 21 after surgery, 2.14 mg/5 ml intrathecally, n=5
# Experimental: FIG. 8 is a line graph showing antagonism of NRP-1/VEGF-A signaling using compound 4. […] SNI elicited mechanical allodynia 21 days after surgery. Paw withdrawal thresholds for SNI rats (Sprague Dawley, male) administered saline (vehicle) or NRP-1 inhibitor (2.14 mg/5 ml) intrathecally (i.t.); n=5). P values, versus control, are indicated. Data are shown as mean±s.e.m. and were analyzed by non-parametric two-way analysis of variance where time was the within subject factor and treatment was the between subject factor (post hoc: Sidak). The experiments were analyzed by an investigator blinded to the treatment. […]
# The assessment of tactile allodynia (i.e., a decreased threshold for paw withdrawal after probing with normally innocuous mechanical stimuli) involved testing the withdrawal threshold of the paw in response to probing with a series of calibrated fine (von Frey) filaments. […] The withdrawal threshold was determined by sequentially increasing and decreasing the stimulus strength (the ‘up and down’ method, and the data analyzed using the nonparametric method of Dixon (as described by Chaplan and Bach, J. Neurosci. Meth. 1994, 53, 55-63) with results expressed as the mean withdrawal threshold. The withdrawal threshold is a level that is statistically significant. Typically, greater than 50% deviation from the baseline could be allodynic.
# [4] = target: T1, NRP-1/VEGF-A interaction; assay: ELISA-based NRP1-VEGF-A165 protein binding assay (concentration-response, IC50); details: 20 nM biotinylated hVEGF-A165 with 4 μg/ml heparin, n=3, read-out: Calculated IC50 values of inhibiting the NRP-1/VEGF-A interaction
# Experimental: Plates (96-well, Nunc Maxisorp; Thermo Fisher Scientific, Waltham, MA, USA) were coated with human Neuropilin-1-Fc (200 ng per well, Cat #50-101-8343, Fisher, Hampton, NH) and incubated at 4° C. overnight. The following day, the plates were washed and blocked with 3% BSA in PBS to minimize non-specific adsorptive binding to the plates. EG00229 (Cat #6986, Tocris) or the indicated compounds were added at different concentrations and incubated for 30 min at room temperature prior to adding biotinylated human VEGF-A165 (Cat #BT10543-025, R&D systems) at 20 nM with 4 μg/ml of heparin. As a negative control, some wells received PBS containing 3% BSA and as a positive control only hVEGF-A165 was used. The plates were incubated at room temperature with shaking for 2 h. Next, the plates were washed with PBS 0.05% Tween to eliminate unbound protein. Bound biotinylated VEGF was detected by streptavidin-HRP (Cat #016-030-084, Jackson immunoResearch). Tetramethylbenzidine (Cat #DY999, R&D Systems, St. Louis, MO) was used as the colorimetric substrate. The optical density of each well was determined immediately, using a microplate reader (Multiskan Ascent; Thermo Fisher Scientific) set to 450 nm with a correction wavelength of 570 nm. Percentage of inhibition was calculated by the following formula: […]
# where S is the optical density measured in the wells with the compounds, N is the optical density measured in the negative control wells and P is the optical density in the positive control wells. The IC50 was calculated using a non-linear regression function with GraphPad Prism Version 9. The data are presented as log (inhibitor) [M] versus normalized response-variable slope. Data are the means±S.E.M. of three independent experiments.
# Finally, the ability of the compounds to interfere with the NRP-1NEGF-A interaction was evaluated using an enzyme linked immunosorbent assay (ELISA), as previously described (Moutal, et al., Pain 2021, 12(1), 243-252). Plates were coated with the extracellular domain of human NRP-1 (containing the a1a2 and the b1b2 regions) and the compounds were added to disrupt the NRP-1NEGF-A interaction. The biotinylated human VEGF-A used in the experiments described above (Moutal, et al., Pain 2021, 12(1), 243-252) was discontinued. For the instant studies, biotinylated hVEGF-A (Cat #BT10543-025, R&D systems) was used. Because of that, the known NRP-1 antagonist EG00229 and compound 4 from the above series of inhibitors (Moutal, et al., Pain 2021, 12(1), 243-252) were also tested in the instant studies.
smiles,measurement,setting,value
Cc1nc(N2CCOCC2)ncc1-c1cc(=O)[nH]c(Nc2ccccc2)n1 [Compound 4],inhibition of basal VEGFR2 phosphorylation,[1],showed inhibition
same,Rel % inhibition,[2],68 ± 5%
same,reversal of SNI-induced mechanical allodynia (paw withdrawal threshold),[3],reverses spared nerve injury (SNI)-induced mechanical allodynia
same,IC50,[4],8.4 µM
